The text below walks through data of patent US20220132856A1, “PHOTOSENSITIZER AND CHELATING AGENT COMBINATIONS FOR USE AS INSECTICIDES” (SUNCOR ENERGY INC., priority 2019, published 2022).

The subject of series [1] is potato aphids (Macrosiphum euphorbiae). Particulars: for Mean Insects Mortality, % 24 HAT / Mean Insects Mortality, % 48 HAT: LED light exposure 14 h after treatment. As to the method:
Potato aphids (Macrosiphum euphorbiae) were obtained from a colony maintained on Bell pepper (Capsicum annuum L.) plants grown in 1-gal plastic pots containing soil mix for greenhouse use (Sunshine LC1, Sun Gro Horticulture Canada Ltd.). Plants were watered as needed and fertilized twice a week with 20-20-20 water soluble fertilizers. Host plants were not exposed to pesticide treatments.
Pepper leaves infested with aphid nymphs were collected and each leaf was placed in 50 ml vials filled with water. Vials were covered with the lead with a small opening to prevent insects from drowning. Vials with host plant leaf infested with insects were placed in 500 ml transparent plastic containers and covered with transparent leads.
All treatments were applied as a fine spray using a hand-held plastic spray bottle. Each treatment was replicated 4 times. Water treatment was used as a Control.
After 14 h of exposure to LED light or dark insects were kept at a regular 14 h/10 h (light/night) photoperiod. Containers with insects were arranged in a randomized fashion. The experimental rack was placed in the Plant Growth Room at 24-25° C.
The number of live aphids on each leaf (replicate/container) was counted before application of the treatments, as well as 24 h and 48 h after the treatments. The insects were examined using 10× magnifying glass. Aphids were considered dead if no movement was detected after mechanical stimulation with the paintbrush.
Percentage of mortality was calculated by using the numbers of live and dead aphids. Percentage of mortality was rated as zero, when number of insects in the sample increased during the experiment (aphids females gave birth to nymphs).

The subject of series [2] is Silverleaf whitefly (Bemesia argentifolii). As to the kind of experiment: Silverleaf whitefly live nymph count on sprayed poinsettia (Example 3). Type of series: in vivo. Particulars: for Mean number of whitefly live nymphs/sample −1 DAA: 1 day before treatments application (baseline); for Mean number of whitefly live nymphs/sample 6 DAA: 6 days after first application, sunlight 8 h after spray; for Mean number of whitefly live nymphs/sample 13 DAA: 13 days after first application (6 days after application 2); for Mean number of whitefly live nymphs/sample 20 DAA: 20 days after first application (13 days after application 2); for Mean number of whitefly live nymphs/sample 28 DAA: 28 days after application 1 (21 days after application 2). As to the method:
The experiments were conducted in a greenhouse. Whiteflies were maintained on Common Poinsettia plants (Euphorbia pulcherrima) in the Greenhouse. Host plants and experimental plants were not initially exposed to pesticide treatments.
Experimental poinsettia plants were grown from the plug stage in 6.5″ plastic pots filled with Sunshine #4 soil mix. The plants were irrigated every day and soluble fertilizer 20-20-20 @ 200 ppm was applied twice weekly.
The poinsettia plants were placed for 7 days to whitefly infected the greenhouse to obtain uniform colonies of insect nymphs on introduced plants. After 7 days, the plants were removed from the infested greenhouse and whitefly nymph population was counted using the discs method.
Two 5.47 cm^2 discs were taken from each plant replicate, insects were observed under a stereoscope and counted. The discs were taken from the mid to upper strata areas of the plant as this area is preferred by insects for eggs laying and nymphs development. Upon initiation of the experiment the whitefly population was considered uniform.
Treatments were applied with CO2 backpack sprayer with a single solid cone nozzle (TG1) at 60 psi. Plants were thoroughly sprayed with tested treatments and immediately exposed to direct sunlight for 8 h before returning to the greenhouse setting. For each treatment, five single plant replicates were used. After 8 h of outside sun exposure all plants were carefully moved into the greenhouse and placed on a wire mesh bench in RCB design. A second application of treatments was made 7 days after the first application using the same methodology.
The number of whitefly nymphs per disc was counted at 1 day before treatments application (DAA), 6 days after first application (DAA), 13 days after first application (or 6 days after application 2), 20 days after first application 1 (or 13 days after application 2) and 28 days after application 1 (or 21 days after application 2).

Series [3] concerns Common Poinsettia plants (Euphorbia pulcherrima). Particulars: 0=healthy plants, 10=dead plants. As to the method: Poinsettia plants were evaluated for phytotoxicity after treatments. Phytotoxicity on the plants was rated 0 to 10, where 0=healthy plants, 10=dead plants at 6 DAA and 13DAA. Ratings were based on visual observations for symptoms such as chlorosis, necrosis, deformation, stunting and compared to plants in the untreated control.

Series [4] concerns Common Poinsettia plants (Euphorbia pulcherrima) cv Prestige Red. The series is described as follows: Phytotoxicity on poinsettia plants (Example 4).
The test system of series [5] is Silverleaf whitefly (Bemesia argentifolii). The series is described as follows: Silverleaf whitefly suppression on sprayed poinsettia (Example 4). Type of series: in vivo. Particulars: whitefly nymphs, two sprays 7 days apart, sunlight 2 days; for Insects Suppression, % 6 DAT2: 6 days after second application; for Insects Suppression, % 13 DAT2: 13 days after second application. As to the method: The experiments were conducted in a greenhouse. Whiteflies were maintained on Common Poinsettia plants (Euphorbia pulcherrima) cv Prestige Red in the Greenhouse. Host plants and experimental plants were not initially exposed to pesticide treatments.
Experimental poinsettia plants were grown in 6.5″ plastic pots filled with Sunshine #4 soil mix. The plants were irrigated every day and soluble fertilizer 20-20-20 @ 200 ppm was applied twice weekly.
The poinsettia plants were placed into a whitefly infected greenhouse for 30 days to obtain uniform colonies of insect nymphs on the plants. After 30 days, the infested plants were moved from the infested greenhouse and placed outside of the greenhouse for a two-day adaptation period prior to the treatment. Whitefly nymph population was counted one day prior to the treatment using the discs method.
Two 5.47 cm^2 discs were taken from each replicate, insects were observed under a stereoscope and counted. The discs were taken from the randomly collected leaves from the mid to upper strata areas of the plant as this area is preferred by insects for eggs laying and nymphs development. Upon initiation of the experiment the whitefly population was considered uniform.
Treatments were applied two times with a 7-day interval using CO2 backpack sprayer with a single hollow cone nozzle (TVXK-3) at 40 psi. Plants were thoroughly sprayed with tested treatments and immediately exposed to direct sunlight for 2 days before returning to the greenhouse setting. For each treatment, six single plant replicates were used. After 2 days of outside sun exposure, all plants were carefully moved into the separate greenhouse and placed on a wire mesh bench in a Completely Randomized design. A second application of treatments was made 7 days after the first application using the same methodology.
The number of whitefly nymphs per disc was counted at 6 and 13 days after second foliar application (6 DAT2, 13DAT2). The Plants were evaluated for phytotoxicity at 6 days after each foliar spray.

In series [6] the test system is German cockroach (Blatella germanica). The series is described as follows: German cockroach nymph suppression, treatment fed in 1% sucrose solution, light or dark. The format is in vivo. The settings on record: cockroach nymphs. The protocol: A small German cockroach colony (Blatella germanica) was purchased from Benzon Research (USA). Cockroach mix sex nymphs were used as model insect.
The experiments were conducted in a lab. Insectary at 25° C. in light and dark conditions. Light condition: 12 h light/12 h dark photoperiod. During the light period insects were exposed to Spectrum Physio Spec Indoor LED light 250 μmol m^−2 s^−1 Dark condition: insects were kept in complete dark. Insects were fed prior to treatments with 1% sucrose solution and were anesthetizing in the fridge for a few minutes before handling.
Ten homogenous cockroach nymphs (3-4 instar) were carefully transferred into each half pint clear glass jar abraded internally to provide surface for climbing and lined with 9 cm in diameter filter paper. The treatments were administered to cockroaches in a 1% sucrose solution positioned in 10 ml glass vials abraded externally for easy climbing insects and placed in jars. Fresh treatment solutions were replaced each 3 days. Glass jars were covered with mesh. […] Completely randomized design with 4 replications per treatment was used.
Treated insects were kept under specific conditions for 14 days and mortality count was performed at 7 and 14 days after exposure to treatments.

Series [7] relates to Citrus Mealybug (Planococcus citri Risso). As to the kind of experiment: Mealybug exposure to direct spray on plants (coleus shoots), instar mortality. Type of series: in vivo. The protocol:
(§1) Colonies of Citrus Mealybug (Planococcus citri Risso) were maintained on Coleus plants (Solenostemon Scutellarioides L. Codd) grown in a Greenhouse under 24±4° C. and 16 h light/8 h dark photoperiod. […] Host plants were not initially exposed to pesticide treatments.
(§2) Small crowns of coleus shoots (4-6 cm in height, 6-7 leaves) were excised from the mature healthy plant and inserted into water-filled 50 ml plastic vials.
(§3) Homogenous mealybug instars-crawlers were carefully collected from the infested coleus plants using tip-moist soft fine paintbrush into a petri dish lined with filter paper. A total of 20 mealybug instars were released on upper leaves of each coleus shoot. […] Rack was located in the Plant Growth Room at 24-25° C.
(§4) Each treatment was replicated 4 times. Water treatment was used as a Control.
(§5) Insects were examined using 10×magnifying glass. […] The number of live and dead insects were recorded. Insect mortality was assessed for up to 96 hours after treatment (HAT-hours after treatment).
(§6) Percentage of citrus mealybug mortality for each treatment was calculated and data was subjected to One-way ANOVA combine with All Pairwise Multiple Comparison Procedures using the Fisher protected LSD mean separation test, […].
Mealybug were introduced to coleus shoots. Two hours later, the shoots were sprayed with photosensitizer and placed under the light for 14 hours.

Series [8] shares this test system. The series is described as follows: Mealybug exposure to direct spray in petri dishes, instar mortality. The format is in vivo. The settings on record: mealybug instars sprayed in petri dishes, simulated daylight (LED) 14 h. The protocol:
as §1, §2, §3, §4, §5, §6
Mealybug instars were transferred into plastic containers lined with filter paper, sprayed and immediately exposed to light for […]. […]

`O=C([O-])CN(CCN(CC(=O)[O-])CC(=O)O)CC(=O)O.[Na+].[Na+]` [0.1% Na2EDTA, Na2EDTA]: in series [1] (24 HAT), the “Mean Insects Mortality, % 24 HAT” value turned out to be 6%. For the same molecule, the “Mean Insects Mortality, % 48 HAT” value in series [1] (48 HAT) is 20%. In series [2], the “Mean number of whitefly live nymphs/sample −1 DAA” value turned out to be 93 nymphs/sample, the “Mean number of whitefly live nymphs/sample 6 DAA” value was found to be 53 nymphs/sample, the “Mean number of whitefly live nymphs/sample 13 DAA” value turned out to be 69.7 nymphs/sample and the “Mean number of whitefly live nymphs/sample 20 DAA” value was 89.9 nymphs/sample. Moreover, in series [2], the “Mean number of whitefly live nymphs/sample 28 DAA” value is on record as 44.3 nymphs/sample. For the same molecule, in series [3], the “Phytotoxicity (0-10) 6 DAA” value amounted to 0, the “Phytotoxicity (0-10) 13 DAA” value is recorded as 0, the “Phytotoxicity (0-10) 20 DAA” value is 0 and the “Phytotoxicity (0-10) 28 DAA” value is given as 0. In series [4], the “Phytotoxicity % 13 DAT2” value amounted to 0%. For the same molecule, in series [5], the “Insects Suppression, % 6 DAT2” value was 36% and the “Insects Suppression, % 13 DAT2” value is listed as 31%. Moreover, the “Insects Suppression %, 14 DAT, Light (12/12 h light-dark)” value in series [6] (LED 250 μmol m^−2 s^−1, 12 h light/12 h dark) worked out at 33%. For the same molecule, the “Insects Suppression %, 14 DAT, Dark” value in series [6] (complete dark) was determined as 0%.
On to Mg-Chlorophyllin [0.2 wt % MgChln], for which, in series [1] (24 HAT), the “Mean Insects Mortality, % 24 HAT” value came out at 24%. For the same molecule, in series [1] (48 HAT), the “Mean Insects Mortality, % 48 HAT” value came out at 24%. Further, in series [1] (no light exposure (dark), dark exposure 24 h, 24 HAT), the “Mean Insect Mortality, % 24 HAT” value is listed as 5%. The “Mean Insect Mortality, % 48 HAT” value in series [1] (no light exposure (dark), dark exposure 24 h, 48 HAT) was determined as 17%. The “Insect mortality, in words” value in series [7] (infested plants sprayed, at 24 and 96 HAT) is reported as “significant insect mortality”. Further, in series [7] (mealybugs on coleus shoots sprayed, light 14 h, 24 hours after treatment), the “Insect Mortality, % 24 HAT” value was 50%. The “Insect Mortality, % 96 HAT” value in series [7] (mealybugs on coleus shoots sprayed, light 14 h, 96 hours after treatment) is 68.8%. Moreover, in series [2], the “Mean number of whitefly live nymphs/sample −1 DAA” value was 111.4 nymphs/sample, the “Mean number of whitefly live nymphs/sample 6 DAA” value is given as 68 nymphs/sample, the “Mean number of whitefly live nymphs/sample 13 DAA” value was 56.6 nymphs/sample and the “Mean number of whitefly live nymphs/sample 20 DAA” value was 74.8 nymphs/sample. Also, in series [2], the “Mean number of whitefly live nymphs/sample 28 DAA” value worked out at 30.1 nymphs/sample. Moreover, in series [3], the “Phytotoxicity (0-10) 6 DAA” value was found to be 0, the “Phytotoxicity (0-10) 13 DAA” value is listed as 0, the “Phytotoxicity (0-10) 20 DAA” value is 0 and the “Phytotoxicity (0-10) 28 DAA” value turned out to be 0. Moreover, the “Insect Mortality, % 24 HAT” value in series [8] (24 hours after treatment) is 32.8%. The “Insect Mortality, % 96 HAT” value in series [8] (96 hours after treatment) is on record as 46.3%.
As to `O=S(=O)([O-])c1ccc(-c2c3nc(c(-c4ccc(S(=O)(=O)[O-])cc4)c4ccc([nH]4)c(-c4ccc(S(=O)(=O)O)cc4)c4nc(c(-c5ccc(S(=O)(=O)[O-])cc5)c5ccc2[nH]5)C=C4)C=C3)cc1.[Na+].[Na+].[Na+]` [0.1% TPPS-Na3, meso-tetra-(4-sulfonatophenyl) porphyrin trisodium salts], the “Phytotoxicity % 13 DAT2” value in series [4] is given as 0%. For the same molecule, in series [5], the “Insects Suppression, % 6 DAT2” value is 37% and the “Insects Suppression, % 13 DAT2” value is reported as 52%.
For `C=CC1=C(C)c2cc3[nH]c(cc4nc(cc5[nH]c(cc1n2)c(C)c5CCC(=O)[O-])C(CCC(=O)[O-])=C4C)c(C)c3C=C.[Na+].[Na+]` [0.1% PPIX, Protoporphyrin sodium salts] the same measures were 0%, 41% and 28%.
For chlorin e6 [0.1% Ce6], in that order: 0%, 27% and 28%.
